Measurements from the supplement of paper PMC13380429.

What was measured:
Conditions in all cases: 72 h
[1] = test system: HepG2; test: relative viability EC50 (midpoint between 100% and the lowest measured viability); higher = less toxic
[2] = test system: Calu-3; test: as above
[3] = test system: U2OS; test: as above
[4] = test system: Vero E6; test: as above
[5] = test system: Caco-2; test: as above
[6] = test system: HepG2; test: drug sensitivity score (DSS) for viability; higher = more toxic; extreme values may be limits of the assay
[7] = test system: Calu-3; test: as above
[8] = test system: U2OS; test: as above
[9] = test system: Vero E6; test: as above
[10] = test system: Caco-2; test: as above
[11] = test system: HepG2; test: cell viability relative to DMSO; higher = less toxic
[12] = test system: Calu-3; test: as above
[13] = test system: U2OS; test: as above
[14] = test system: Vero E6; test: as above
[15] = test system: Caco-2; test: as above

SMILES	relative viability EC50 [1] [µM]	relative viability EC50 [2] [µM]	relative viability EC50 [3] [µM]	relative viability EC50 [4] [µM]	relative viability EC50 [5] [µM]	drug sensitivity score [6]	drug sensitivity score [7]	drug sensitivity score [8]	drug sensitivity score [9]	drug sensitivity score [10]	cell viability ([11]; 1 nM) [%]	cell viability ([11]; 10 nM) [%]	cell viability ([11]; 100 nM) [%]	cell viability ([11]; 1000 nM) [%]	cell viability ([11]; 10000 nM) [%]	cell viability ([12]; 1 nM) [%]	cell viability ([12]; 10 nM) [%]	cell viability ([12]; 100 nM) [%]	cell viability ([12]; 1000 nM) [%]	cell viability ([12]; 10000 nM) [%]	cell viability ([13]; 1 nM) [%]	cell viability ([13]; 10 nM) [%]	cell viability ([13]; 100 nM) [%]	cell viability ([13]; 1000 nM) [%]	cell viability ([13]; 10000 nM) [%]	cell viability ([14]; 1 nM) [%]	cell viability ([14]; 10 nM) [%]	cell viability ([14]; 100 nM) [%]	cell viability ([14]; 1000 nM) [%]	cell viability ([14]; 10000 nM) [%]	cell viability ([15]; 1 nM) [%]	cell viability ([15]; 10 nM) [%]	cell viability ([15]; 100 nM) [%]	cell viability ([15]; 1000 nM) [%]	cell viability ([15]; 10000 nM) [%]
CN1CC[C@@H](c2c(O)cc(O)c3c(=O)cc(-c4ccccc4Cl)oc23)[C@@H]1CO [P276-00]	0.324	0.604	0.878	1.21	0.881	16.7	8.5	11.5	10.1	9.4	114	94.7	101	6.6	7.6	108	103	94.5	59	38.2	97.6	100	90.3	49.3	3	103	95.8	102	63.9	6.1	101	108	95.1	57.6	21.8
O=C(/C=C/c1ccc2ccc(C(F)(F)F)cc2n1)c1ccncc1 [PFK-158]	3.37	> 10	3.22	> 10	> 10	2.8	0	5.5	0.5	0	97.1	84.6	96.3	102	44.9	92.1	96.3	90.5	104	89.9	94.4	100	93.9	101	0	105	86.7	110	92.1	87.3	95.9	92.8	102	92.3	88.2
Nc1cc(C(F)(F)F)c(-c2nc(N3CCOCC3)nc(N3CCOCC3)n2)cn1 [PI3K-IN-2]	0.935	0.376	2.07	1.12	1.12	9.1	12.4	5.9	7.8	9.1	124	106	101	59.4	25.1	88.3	102	78.1	48	21.4	103	106	99	89.7	24.5	106	106	105	70	30	107	106	97.7	63.3	17.1
C[C@@]1(F)[C@H](O)[C@@H](CO)O[C@H]1n1ccc(N)nc1=O [PSI-6130]	> 10	> 10	> 10	> 10	> 10	0	0	0	0	0	103	91.8	106	100	107	99.3	99.6	96	100	96.7	95.5	101	96.9	100	107	101	93.3	100	92.5	106	94.8	96.8	94.7	103	108
C[C@@H](CN1CCC(Cc2ccccc2)CC1)[C@@H](O)c1ccc(O)cc1 [Ro-25-6981]	> 10	> 10	> 10	> 10	> 10	0	0	0	0	0	93.9	100	102	101	102	97.4	98.2	89.1	95.8	107	99.1	102	96.5	96.8	100	103	102	103	107	99.8	97.1	92.3	86.9	94.4	94.3
CC(C)SC(=N)N [S-isopropylisothiourea]	> 10	> 10	> 10	> 10	> 10	0	0.5	0	0	0	101	109	103	94.5	108	100	99.5	102	97.1	84.8	96.9	98.2	96.3	103	102	103	99.2	99.5	89.9	97.2	99	95	96.7	105	91.9
O=C(NNc1nc2cc(F)ccc2n2cccc12)c1cnccn1 [SC-144]	0.323	0.27	0.513	0.368	0.17	15.3	18.1	12.5	12.6	20	96	98.3	101	15.2	20.2	102	95.9	93.3	6	3.9	104	99.3	91.8	40.1	15.9	97.1	100	82.7	43.6	21.9	93.3	101	80.4	6.6	13.8
